Earlier results in patent US11528929B2, “Composition for treatment of overactive bladder” (priority 2019, dated 2022).

Settings: pH at 50% bound and 50% in free form

isoelectric pH (dissociation point): 3.41
Compound: O=C(O)CC(O)C(=O)O (stereo not shown) [malic acid]
